Source: US8927500B2, “Peptidomimetic macrocycles” (Aileron Therapeutics, Inc., priority 2012, dated 2015)
Where a SMILES comes first, the peptide text is derived from it. Bridges are numbered along the chain shown (N, C = ends). [ ]: non-standard residue; d: D form. R8 = C=CCCCCCC[C@@](C)(N)C(=O)O; S5 = C=CCCC[C@](C)(N)C(=O)O

Legend:
[1] = test system: Caspase 3; experiment: Caspase 3 detection assay in SJSA1 cells; type: cell-based; settings: 48 h, Caspase 3 activation over DMSO-treated cells; for caspase 0.3 uM: 0.3 uM peptide; for caspase 3 uM: 3 uM peptide; for caspase 10 uM: 10 uM peptide; for caspase 30 uM: 30 uM peptide
[2] = test system: SJSA-1 cells; experiment: Cell lysis by peptidomimetic macrocycles (LDH release); type: cell-based; settings: 1 h at 37C
[3] = target: MDM2 (Homo sapiens, UniProt Q00987); experiment: Competitive fluorescence polarization assay for MDM2; type: binding; settings: competitive FP assay, MDM2; for IC50: read-out: IC50 (MDM2); for Ki: read-out: Ki (MDM2)
[4] = target: T1, MDMX (Homo sapiens, UniProt O15151); experiment: Competitive fluorescence polarization assay for MDMX; type: binding; settings: competitive FP assay; for IC50: read-out: IC50 (MDMX); for Ki: read-out: Ki (MDMX)
T1 sequence (O15151 1-125): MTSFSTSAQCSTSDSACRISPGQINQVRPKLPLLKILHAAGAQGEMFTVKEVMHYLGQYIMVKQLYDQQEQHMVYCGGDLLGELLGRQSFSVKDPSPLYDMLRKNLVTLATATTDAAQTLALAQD

Sequence of MDM2 (Q00987 1-125): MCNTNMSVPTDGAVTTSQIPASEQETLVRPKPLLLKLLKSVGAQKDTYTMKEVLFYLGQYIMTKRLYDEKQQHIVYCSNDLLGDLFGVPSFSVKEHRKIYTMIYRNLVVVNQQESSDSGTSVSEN

| Structure (SMILES) | caspase 0.3 uM [1] | caspase 3 uM [1] | caspase 10 uM [1] | caspase 30 uM [1] | 6.25 uM % Lysed cells (1 h LDH) [2] | 25 uM % Lysed cells (1 h LDH) [2] | 50 uM % Lysed cells (1 h LDH) [2] | IC50 [3] | Ki [3] | IC50 [4] | Ki [4] |
| --- | --- | --- | --- | --- | --- | --- | --- | --- | --- | --- | --- |
| CC(=O)N[C@@H](CC(C)C)C(=O)N[C@H](C(=O)N[C@@H](Cc1ccccc1)C(=O)N[C@]1(C)CCCCCCC=CCCC[C@@](C)(C(=O)N[C@@H](CO)C(=O)N[C@@H](C)C(=O)N[C@@H](CO)C(N)=O)NC(=O)[C@H](CC(C)C)NC(=O)[C@H](CCC(N)=O)NC(=O)[C@H](C)NC(=O)[C@H](Cc2c[nH]c3ccccc23)NC(=O)[C@H](Cc2ccc(O)cc2)NC(=O)[C@H](C)NC1=O)[C@@H](C)O [compound 122] (Ac-LTF[R8]AYWAQL[S5]SAS-NH2; staple 4-11) | 1 | 2 | 15 | 30 | 1% | 0% | 6% | < 0.01 µM | < 0.01 µM | 0.1 to 1 µM | 0.01 to 0.1 µM |
| CC(=O)N[C@@H](CC(C)C)C(=O)N[C@H](C(=O)N[C@@H](Cc1ccccc1)C(=O)N[C@]1(C)CCCCCCC=CCCC[C@@](C)(C(=O)N[C@@H](CO)C(=O)N[C@H](C(=O)NCC(N)=O)C(C)C)NC(=O)[C@H](CC(C)C)NC(=O)[C@H](CCC(N)=O)NC(=O)[C@H](C)NC(=O)[C@H](Cc2c[nH]c3ccccc23)NC(=O)[C@H](Cc2ccc(O)cc2)NC(=O)[C@H](C)NC1=O)[C@@H](C)O [compound 123] (Ac-LTF[R8]AYWAQL[S5]SVG-NH2; staple 4-11) | 1 | 1 | 6 | 14 | −2% | 5% | 3% | < 0.01 µM | < 0.01 µM | 0.1 to 1 µM | 0.01 to 0.1 µM |
| CC(=O)N[C@@H](CCC(=O)O)C(=O)N[C@H](C(=O)N[C@@H](Cc1ccccc1)C(=O)N[C@]1(C)CCCCCCC=CCCC[C@@](C)(C(=O)N[C@@H](CO)C(=O)N[C@@H](C)C(=O)N[C@@H](C)C(N)=O)NC(=O)[C@H](CC(C)C)NC(=O)[C@H](CCC(N)=O)NC(=O)[C@H](C)NC(=O)[C@H](Cc2c[nH]c3ccccc23)NC(=O)[C@H](Cc2ccc(O)cc2)NC(=O)[C@H](C(C)C)NC1=O)[C@@H](C)O [compound 125] (Ac-ETF[R8]VYWAQL[S5]SAA-NH2; staple 4-11) | 1 | 3 | 9 | 29 | 0% | 0% | 2% | < 0.01 µM | < 0.01 µM | 0.1 to 1 µM | 0.01 to 0.1 µM |
| CC(=O)N[C@@H](CCC(=O)O)C(=O)N[C@H](C(=O)N[C@@H](Cc1ccccc1)C(=O)N[C@]1(C)CCCCCCC=CCCC[C@@](C)(C(=O)N[C@@H](CO)C(=O)N[C@H](C(=O)N[C@@H](C)C(N)=O)C(C)C)NC(=O)[C@H](CC(C)C)NC(=O)[C@H](CCC(N)=O)NC(=O)[C@H](C)NC(=O)[C@H](Cc2c[nH]c3ccccc23)NC(=O)[C@H](Cc2ccc(O)cc2)NC(=O)[C@H](C(C)C)NC1=O)[C@@H](C)O [compound 126] (Ac-ETF[R8]VYWAQL[S5]SVA-NH2; staple 4-11) | 1 | 1 | 6 | 30 | 1% | 1% | 1% | < 0.01 µM | < 0.01 µM | 0.1 to 1 µM | 0.01 to 0.1 µM |
| CC(=O)N[C@@H](CCC(=O)O)C(=O)N[C@H](C(=O)N[C@@H](Cc1ccccc1)C(=O)N[C@]1(C)CCCCCCC=CCCC[C@@](C)(C(=O)N[C@@H](CO)C(=O)N[C@H](C(=O)N[C@@H](CO)C(N)=O)C(C)C)NC(=O)[C@H](CC(C)C)NC(=O)[C@H](CCC(N)=O)NC(=O)[C@H](C)NC(=O)[C@H](Cc2c[nH]c3ccccc23)NC(=O)[C@H](Cc2ccc(O)cc2)NC(=O)[C@H](C(C)C)NC1=O)[C@@H](C)O [compound 130] (Ac-ETF[R8]VYWAQL[S5]SVS-NH2; staple 4-11) | 1 | 2 | 6 | 17 | 1% | 0% | −1% | < 0.01 µM | < 0.01 µM | 0.1 to 1 µM | 0.01 to 0.1 µM |
| CC(=O)N[C@@H](CCC(=O)O)C(=O)N[C@H](C(=O)N[C@@H](Cc1ccccc1)C(=O)N[C@]1(C)CCCCCCC=CCCC[C@@](C)(C(=O)N[C@@H](CO)C(=O)N[C@@H](C)C(=O)N[C@@H](C)C(N)=O)NC(=O)[C@H](CC(C)C)NC(=O)[C@H](CCC(N)=O)NC(=O)[C@H](C)NC(=O)[C@H](Cc2c[nH]c3ccccc23)NC(=O)[C@H](Cc2ccc(O)cc2)NC(=O)[C@H](CCC(=O)O)NC1=O)[C@@H](C)O [compound 161] (Ac-ETF[R8]EYWAQL[S5]SAA-NH2; staple 4-11) | 2 | 8 | 14 | 22 | 1% | −1% | 0% | < 0.01 µM | < 0.01 µM | 0.1 to 1 µM | 0.01 to 0.1 µM |
| CC[C@H](C)[C@H](NC(=O)[C@H](C)NC(=O)[C@H](C)NC(=O)[C@]1(C)CCCC=CCCCCCC[C@@](C)(NC(=O)[C@H](Cc2ccccc2)NC(=O)[C@@H](NC(=O)[C@H](CC(C)C)NC(C)=O)[C@@H](C)O)C(=O)N[C@@H](C)C(=O)N[C@@H](Cc2c[nH]cn2)C(=O)N[C@@H](Cc2c[nH]c3ccccc23)C(=O)N[C@@H](C)C(=O)N[C@@H](CCC(N)=O)C(=O)N[C@@H](CC(C)C)C(=O)N1)C(=O)N[C@H](C)C(N)=O [compound 170] (Ac-LTF[R8]AHWAQL[S5]AAI[dA]-NH2; staple 4-11) | 1 | 1 | 16 | 20 | 2% | 1% | −1% | < 0.01 µM | < 0.01 µM | 0.1 to 1 µM | 0.01 to 0.1 µM |
| CC[C@H](C)[C@H](NC(C)=O)C(=O)N[C@H](C(=O)N[C@@H](Cc1ccccc1)C(=O)N[C@]1(C)CCCCCCC=CCCC[C@@](C)(C(=O)N[C@@H](C)C(=O)N[C@@H](C)C(=O)N[C@H](C(=O)N[C@H](C)C(N)=O)[C@@H](C)CC)NC(=O)[C@H](CC(C)C)NC(=O)[C@H](CCC(N)=O)NC(=O)[C@H](C(C)C)NC(=O)[C@H](Cc2c[nH]c3ccccc23)NC(=O)[C@H](Cc2ccc(O)cc2)NC(=O)[C@H](Cc2ccccc2)NC1=O)[C@@H](C)O [compound 177] (Ac-ITF[R8]FYWVQL[S5]AAI[dA]-NH2; staple 4-11) | 1 | 1 | 8 | 20 | −1% | 0% | 1% | 0.01 to 0.1 µM | < 0.01 µM | 0.1 to 1 µM | 0.01 to 0.1 µM |
| CC(=O)N[C@@H](CC(C)C)C(=O)N[C@H](C(=O)N[C@@H](Cc1ccccc1)C(=O)N[C@]1(C)CCCCCCC=CCCC[C@@](C)(C(=O)N[C@@H](CO)C(=O)N[C@@H](C)C(=O)N[C@@H](C)C(N)=O)NC(=O)[C@H](CC(C)C)NC(=O)[C@H](C)NC(=O)[C@H](C(C)C)NC(=O)[C@H](Cc2c[nH]c3ccccc23)NC(=O)[C@H](Cc2ccc(O)cc2)NC(=O)[C@H](C)NC1=O)[C@@H](C)O [compound 196] (Ac-LTF[R8]AYWVAL[S5]SAA-NH2; staple 4-11) | 1 | 4 | 33 | 26 | 0% | 0% | 3% | 0.01 to 0.1 µM | < 0.01 µM | 0.1 to 1 µM | 0.01 to 0.1 µM |
